Test results taken from patent US20230091310A1, “Inhibitor of Fertilized Egg Fragmentation” (priority 2019, published 2023).

Columns and labels:
[1] = system: eggs; assay: Oxidative stress test (ROS/RNS Detection Kit) in eggs; assay type: cell-based, mouse; conditions: 1 μM each; 15 hours on hot plate; vs vehicle (0.1% DMSO)
Procedure: Mouse cumulus cells-egg masses harvested by the method of Example 3 were stored in TYH medium and the cumulus cells were removed by 300 μg/mL hyaluronidase treatment to recover the eggs alone. TYH medium containing 1 μM selenoneine (SeN), TYH medium containing 1 μM ergothioneine (Erg) and TYH medium containing 1 μM ergothioneine and 1 μM ebselen (Tokyo Kasei Kogyo Co., Ltd.) (Erg+Eb) were prepared and incubated on a hot plate set to 37° C. As a control, a TYH medium (vehicle) containing the DMSO (0.1%) used to dissolve the ebselen was used. The collected eggs were transferred to incubated selenoneine-containing TYH medium and cultured under shielding for 15 hours. The reagent of a ReOIS-ID ROS/RNS Detection Kit (product of Enzo Co.) was added to the medium containing the cultured eggs, according to the manufacturer's protocol. DAPI (Wako Pure Chemical Industries, Ltd.) had already been separately added to stain the nuclei. The nuclei (DAPI) and the reactive oxygen species (ROS), reactive nitrogen species (RNS) and superoxides in the eggs were observed under a fluorescent microscope (FIG. 8A). The fluorescence intensity was calculated and graphed (FIGS. 8B to D).

[2] = system: fertilized eggs; assay: Fertilized egg fragmentation after treatment of sperm, in vitro fertilization; assay type: cell-based, mouse (C57BL/6 J line); conditions: sperm incubated 6 h with 100 nM, 24 h after fertilization; for fragmented embryos: vs untreated control
Procedure: In the same manner as Example 2, sperm incubated for 6 hours in selenoneine-containing TYH medium (final concentration: 100 nM) were separated off with the medium and washed with TYH medium that had been previously incubated at 37° C. in a 5% CO2 atmosphere, after which the washed sperm were separated off and added to TYH medium containing cumulus cells-egg masses. After 24 hours had passed, the fertilization rate was measured and the numbers of normal 2-cell stage embryos and fragmented embryos were counted. For measurement of the fertilization rate, second polar body release and the presence or absence of cell nuclei in the split bodies of each of the 2-cell stage embryos were visually observed in the bright field of a stereomicroscope, and normal 2-cell stage embryos and fragmented embryos were likewise observed in the bright field of a stereomicroscope.
The inhibiting effect of ergothioneine treatment on fragmentation of fertilized eggs was examined in the same manner as the selenoneine treatment of sperm in Example 3, but using commercially available ergothioneine (final concentration: 100 nM) instead of selenoneine (FIG. 5). No difference in the proportion of 2-cell stage embryos was found between the ergothioneine treatment and selenoneine treatment (FIG. 5A).

[3] = system: mouse sperm; assay: Sperm membrane protection (propidium iodide / Hoechst 33342 staining); assay type: cell-based, mouse (C57BL/6 J line)
Procedure: (§1) A sperm mass harvested from the epididymis of an 8- to 12-week-old sexually matured male mouse (C57BL/6 J line) was transferred to a drop prepared in the TYH medium. It was then returned to the plastic dish in the incubator and allowed to stand for 1 hour. After standing for 1 hour, the selenoneine prepared in Example 1 was added to a drop of sperm-containing fertilization medium to final concentrations of 10 nM, 1 μM and 100 μM (or was not added for the control), and the mixture was cultured in an incubator for 3 hours, 6 hours and 9 hours, after which the sperm were obtained. The sperm were also obtained before culturing (0 h). The nuclei of obtained sperm were stained with 2 μg/mL of propidium iodide (PI: Sigma-Aldrich Japan, KK.) and 16.2 μM of Hoechst AG 33342 (Hoechst3342: Invitrogen Corp.), and observed under a fluorescent microscope (FIG. 9A). The number of sperm whose nuclei were unstained with propidium iodide was divided by the number of sperm whose nuclei were stained with Hoechst AG, to calculate the proportion of sperm which retained membranes (FIG. 9B).
Hoechst AG is cell membrane-permeable and can stain all sperm nuclei, whereas propidium iodide is membrane-impermeable and can only stain the nuclei of dead sperm or sperm that have damaged membranes. Therefore, the number of sperm whose nuclei were not stained with propidium iodide but were stained only by Hoechst AG represents the number of normal sperm which retained their membranes.
as §1, with “(Hoechst3342: distributed by” for “(Hoechst3342:”, “microscope.” for “microscope (FIG. 9A).”, “9C).” for “9B).”

[4] = system: eggs; assay: Stress-induced egg fragmentation (hot plate culturing); assay type: cell-based, mouse; conditions: hot plate 37° C.; for egg fragmentation: after 21 and 24 hours of culturing
Procedure: (§2) Mouse cumulus cells-egg masses harvested by the method of Example 3 were stored in TYH medium and the cumulus cells were removed by 300 μg/mL hyaluronidase treatment to recover the eggs alone. TYH medium was prepared with selenoneine at 10 nM, 100 nM, 1 μM, 10 μM and 100 μM, and incubated on a hot plate set to 37° C. Selenoneine-free THY medium was used as the control. The collected eggs were transferred to the incubated selenoneine-containing TYH medium and cultured under shielding for 12 hours, 15 hours, 18 hours, 21 hours and 24 hours, after which they were observed under a stereomicroscope and the proportion of fragmented eggs was examined (FIG. 6). The numbers of cultured eggs in each selenoneine-containing medium were 10 nM: 107, 100 nM: 161, 1 μM: 155, 10 μM: 118, 100 μM: 85 and control: 83.
Culturing by incubation on a hot plate instead of a CO2 incubator produced stress in the eggs. […] The numbers of cultured eggs in each medium were 10 nM: 63, 100 nM: 66, 1 μM: 63, 10 μM: 71, 100 μM: 54 and control: 83.
as §2, with “with ergothioneine” for “with selenoneine”, “C. Ergothioneine-free” for “C. Selenoneine-free”, “(FIG. 7).” for “(FIG. 6). The numbers of cultured eggs in each selenoneine-containing medium were 10 nM: 107, 100 nM: 161, 1 μM: 155, 10 μM: 118, 100 μM: 85 and control: 83.”
Culturing by incubation on a hot plate instead of a CO2 incubator produced stress in the eggs.

[5] = system: mouse sperm; assay: Sperm motility test (CASA); assay type: cell-based, mouse (C57BL/6 J line); conditions: 1 μL of 10 μM added to 100 μL TYH drop; 3 h and 6 h incubation; vs control
Procedure: A 100 μL drop of TYH medium was prepared in a plastic dish, and liquid paraffin was laid over it until the drop was completely covered. The plastic dish was then allowed to stand for 16 hours in an incubator set to 5% CO2, 37° C. The TYH medium drop on the plastic dish was used for a sperm motility test and fertilization test. A sperm mass harvested from the epididymis of a 8- to 12-week-old sexually matured male mouse (C57BL/6 J line) was transferred to a drop prepared in the TYH medium. It was then returned to the plastic dish in the incubator and allowed to stand for 1 hour. After standing for 1 hour, 1 μL of selenoneine (10 μM) prepared in Example 1 was added to a drop of sperm-containing fertilization medium (or not added for the control), and the mixture was allowed to stand in an incubator. After incubation for 3 hours, the sperm motility was measured using CASA, and the proportion of sperm was measured, dividing it into motile sperm and progressive sperm (FIGS. 2A and B). After incubation for 6 hours, the proportion of sperm was then measured with similar division based on sperm motility (VCL) (FIGS. 2C and D).

[6] = system: fertilized eggs; assay: Fertilized egg fragmentation after treatment of eggs, in vitro fertilization; assay type: cell-based, mouse (C57BL/6 J line); conditions: eggs cultured with 100 nM; 24 h after sperm addition; vs control
Procedure: Female mice (C57BL/6 J line: 8- to 12-week-old) were treated for superovulation by the following procedure, and the eggs were harvested.
1. Animal serotropin (PMSG, ASKA Pharmaceutical Co., Ltd.) and animal gonadotropin (hCG, ASKA Pharmaceutical Co., Ltd.) were dissolved in physiological saline to […]. 2. The mice were intraperitoneally administered PMSG at 0.1 mL(5 units)/mouse, and after 48 hours they were intraperitoneally administered hCG at 0.1 mL (5 units)/mouse. 3. After hCG administration, the cumulus cells and egg masses were taken through the fallopian tubes of the mice at 14 to 16 hours.
The cumulus cells and egg masses harvested from the fallopian tubes of the superovulated mice were transferred to a drop of 100 μL TYH medium that had been previously incubated in 5% CO2 at 37° C., and allowed to stand in the incubator.
The harvested eggs were cultured for 2 hours in TYH medium, and then the 1 μL selenoneine (10 μM) solution prepared in Example 1 was added to the TYH medium drop (or not added for the control), and further culturing was carried out for 2 hours with a final concentration of 100 nM selenoneine in the medium. […] After 24 hours had passed in the presence of selenoneine, the fertilization rate was measured and the numbers of normal 2-cell stage embryos and fragmented embryos were counted. […]

[7] = 10 nM to 100 μM, culturing 3, 6 and 9 hours
[8] = 100 μM, after culturing for 9 hours, p<0.05

| Structure (SMILES) | reactive nitrogen species (RNS) in eggs [1] | reactive oxygen species (ROS) in eggs [1] | superoxides in eggs [1] | fragmented embryos ([2]; washed) | proportion of 2-cell stage embryos, ergothioneine treatment versus selenoneine treatment [2] | proportion of sperm which retained membranes [3, 7] | proportion of sperm which retained membranes [3, 8] | egg fragmentation ([4]; 10 nM to 10 μM in TYH medium) | egg fragmentation ([4]; 1 μM in TYH medium, p<0.05) | proportion of 2-cell stage embryos ([2]; washed, vs control) | sperm motility (proportion of motile sperm and progressive sperm) [5] | degree of egg fragmentation ([4]; 100 nM, 1 μM and 10 μM in TYH medium, p<0.05) | fragmented embryos [6] | proportion of 2-cell stage embryos [6] |
| --- | --- | --- | --- | --- | --- | --- | --- | --- | --- | --- | --- | --- | --- | --- |
| C[N+](C)(C)[C@@H](Cc1c[nH]c(=S)[nH]1)C(=O)[O-] [ergothioneine] | no variation | increased significantly | No change | reduced compared to the untreated control | No difference | membrane-protecting effect | significantly protected | inhibition seen | significantly inhibited | – | – | – | – | – |
| C[N+](C)(C)[C@@H](Cc1cnc([Se-])[nH]1)C(=O)O [selenoneine] | significant reduction | increased significantly | No change | No fragmented embryos | – | membrane-protecting effect | significantly protected | – | – | no difference | No effect on sperm motility | significantly inhibited | no fragmented embryos | no difference |
